Experimental findings from ChEMBL document CHEMBL5338717, “Discovery of novel PDE4 inhibitors targeting the M-pocket from natural mangostanin with improved safety for the treatment of Inflammatory Bowel Diseases” (Eur J Med Chem, 2022) are described below.

The structures appear in SMILES notation. Activity calls are given as the source filed them.

In series [1] the target is T1, 3',5'-cyclic-AMP phosphodiesterase 4D (Homo sapiens, UniProt Q08499). Briefly: Inhibition of recombinant PDE4D2 (86 to 413 residues) (unknown origin) expressed in Escherichia coli BL21 using [3H]cAMP as substrate incubated for 15 mins by liquid scintillation method.
Series [2] in a line: Metabolic stability in rat liver microsomes assessed as half life. The format is ADME, Microsome. On the technique in general: Microsomes from liver hold many membrane-bound enzymes, among them those of drug oxidation.
A short description of series [3]: Toxicity in twelve hrs fasted Beagle dog assessed as emesis at 1 mg/kg,po and measured upto 180 mins. The format is organism-based, Canis lupus familiaris. The conditions noted are these: in vivo, 3 h.
Series [4] has as its target T1, 3',5'-cyclic-AMP phosphodiesterase 4D. Put plainly: Inhibition of PDE4D2 (unknown origin).
Series [5] has as its system Mus musculus. Put plainly: Anti-inflammatory bowel disease activity in DSS-induced inflammatory bowel disease C57BL/6 mouse model assessed as decrease in IFN-gamma mRNA expression level in colon at 25 mg/kg, iv BID and measured after 8 days by real-time PCR analysis. The format is functional, organism-based. As to conditions: time 8.0 day. A general note: Real-time PCR tracks product formation cycle by cycle.

Series [6] has as its system Mus musculus. Put plainly: Anti-inflammatory bowel disease activity in DSS-induced inflammatory bowel disease C57BL/6 mouse model assessed as increase in colon length at 25 mg/kg, iv BID and measured upto 8 days. The format is functional, organism-based. The conditions noted are these: time <= 8.0 day.
Series [7] deals with Mus musculus. Put plainly: Anti-inflammatory bowel disease activity in DSS-induced inflammatory bowel disease C57BL/6 mouse model assessed as decrease in loss of crypt architecture in colon at 25 mg/kg, iv BID and measured after 8 days by Haematoxylin and eosin staining based microscopy. The format is functional, organism-based. As to conditions: time 8.0 day.
Series [8] deals with Mus musculus. Briefly: Anti-inflammatory bowel disease activity in DSS-induced inflammatory bowel disease C57BL/6 mouse model assessed as decrease in IL-10 mRNA expression level in colon at 25 mg/kg, iv BID and measured after 8 days by real-time PCR analysis. The conditions noted are these: time 8.0 day. The format is functional, organism-based.
Series [9] in a line: Inhibition of PDE7 (unknown origin). More on the design: species or system Homo sapiens.
Series [10] has as its system Mus musculus. Briefly: Anti-inflammatory bowel disease activity in DSS-induced inflammatory bowel disease C57BL/6 mouse model assessed as decrease in mucosal ulceration in colon at 25 mg/kg, iv BID and measured after 8 days by Haematoxylin and eosin staining based microscopy. The format is functional, organism-based. The conditions noted are these: time 8.0 day.
The subject of series [11] is Mus musculus. Put plainly: Anti-inflammatory bowel disease activity in DSS-induced inflammatory bowel disease C57BL/6 mouse model assessed as decrease in rectal bleeding by measuring disease activity index score at 25 mg/kg, iv BID and measured upto 8 days by Haem-occult test. The format is functional, organism-based. As to conditions: time <= 8.0 day.
The test system of series [12] is Mus musculus. Briefly: Anti-inflammatory bowel disease activity in DSS-induced inflammatory bowel disease C57BL/6 mouse model assessed as decrease in diarrhoea by measuring disease activity index score at 25 mg/kg, iv BID and measured upto 8 days. The format is functional, organism-based. As to conditions: time <= 8.0 day.
The test system of series [13] is Mus musculus. Briefly: Anti-inflammatory bowel disease activity in DSS-induced inflammatory bowel disease C57BL/6 mouse model assessed as decrease in goblet cells in colon at 25 mg/kg, iv BID and measured after 8 days by Haematoxylin and eosin staining based microscopy. The format is functional, organism-based. As to conditions: time 8.0 day.
In series [14] the test system is Mus musculus. Put plainly: Anti-inflammatory bowel disease activity in DSS-induced inflammatory bowel disease C57BL/6 mouse assessed as decrease in neutrophil infiltration in colon at 25 mg/kg, iv BID and measured after 8 days by Haematoxylin and eosin staining based microscopy. The format is functional, organism-based. As to conditions: time 8.0 day.
Series [15] relates to Mus musculus. Put plainly: Anti-inflammatory bowel disease activity in DSS-induced inflammatory bowel disease C57BL/6 mouse model assessed as decrease in epithelial damage in colon at 25 mg/kg, iv BID and measured after 8 days by Haematoxylin and eosin staining based microscopy. The format is functional, organism-based. As to conditions: time 8.0 day.
Series [16] deals with Mus musculus. Put plainly: Anti-inflammatory bowel disease activity in DSS-induced inflammatory bowel disease C57BL/6 mouse model assessed as decrease in TNF-alpha mRNA expression level in colon at 25 mg/kg, iv BID and measured after 8 days by real-time PCR analysis. The format is functional, organism-based. As to conditions: time 8.0 day.
Series [17] concerns Mus musculus. Briefly: Anti-inflammatory bowel disease activity in DSS-induced inflammatory bowel disease C57BL/6 mouse model assessed as increase in body weight at 25 mg/kg, iv BID and measured after 8 days […]. The format is functional, organism-based. As to conditions: time 8.0 day.
Series [18] concerns Mus musculus. Briefly: Anti-inflammatory bowel disease activity in DSS-induced inflammatory bowel disease C57BL/6 mouse model assessed as decrease in IL-6 mRNA expression level in colon at 25 mg/kg, iv BID and measured after 8 days by real-time PCR analysis. The format is functional, organism-based. The conditions noted are these: time 8.0 day.
For series [19], the system named is Mus musculus. Briefly: Anti-inflammatory bowel disease activity in DSS-induced inflammatory bowel disease C57BL/6 mouse model assessed as decrease in body weight loss by measuring disease activity index score at 25 mg/kg, iv BID and measured upto 8 days. The format is functional, organism-based. As to conditions: time <= 8.0 day.

T1 sequence (Q08499 whole entry, the tested form may be a part): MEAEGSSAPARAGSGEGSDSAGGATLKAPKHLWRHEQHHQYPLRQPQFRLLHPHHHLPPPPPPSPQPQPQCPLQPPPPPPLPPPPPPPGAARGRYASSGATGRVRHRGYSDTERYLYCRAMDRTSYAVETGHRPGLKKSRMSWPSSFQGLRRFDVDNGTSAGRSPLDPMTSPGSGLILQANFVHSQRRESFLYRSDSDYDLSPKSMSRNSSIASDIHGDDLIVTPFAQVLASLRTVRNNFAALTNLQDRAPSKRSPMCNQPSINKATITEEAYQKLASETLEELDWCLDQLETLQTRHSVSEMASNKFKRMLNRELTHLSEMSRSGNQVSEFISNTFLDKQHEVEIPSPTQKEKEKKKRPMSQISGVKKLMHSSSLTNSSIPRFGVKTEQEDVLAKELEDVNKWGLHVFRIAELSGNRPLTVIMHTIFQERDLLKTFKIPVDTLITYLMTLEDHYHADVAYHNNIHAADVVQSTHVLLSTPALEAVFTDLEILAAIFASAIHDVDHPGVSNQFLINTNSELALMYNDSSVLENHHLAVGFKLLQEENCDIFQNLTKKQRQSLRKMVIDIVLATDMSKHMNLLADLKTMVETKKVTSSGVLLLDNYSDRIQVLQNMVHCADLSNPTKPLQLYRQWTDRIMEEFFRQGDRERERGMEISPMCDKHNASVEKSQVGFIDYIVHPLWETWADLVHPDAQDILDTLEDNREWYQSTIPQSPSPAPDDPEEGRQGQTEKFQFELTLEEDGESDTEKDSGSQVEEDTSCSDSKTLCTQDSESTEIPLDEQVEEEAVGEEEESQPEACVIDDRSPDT

Broadly, the IC50 is the point on the concentration scale where inhibition reaches its midpoint. As for `COc1c(OCc2ccc(F)cc2)cc2oc3cc4c(c(OCC5CCNCC5)c3c(=O)c2c1CC=C(C)C)C=CC(C)(C)O4`, the IC50 in series [1] worked out at 12.4 nM.

As to `COc1c(O)cc2oc3cc4c(c(OCc5cccnc5)c3c(=O)c2c1CC=C(C)C)C=CC(C)(C)O4`, the IC50 in series [1] was above 1000 nM.

The term half-life denotes the time needed for the level to fall by half in the phase considered. Consider `COc1c(O)cc2oc3cc4c(c(O)c3c(=O)c2c1CC=C(C)C)C=CC(C)(C)O4` [MANGOSTANIN], for which the half-life in [2] is 8.1 min.

Consider `COc1c(OCc2ccc(F)cc2)cc2oc3cc4c(c(OCc5cccnc5)c3c(=O)c2c1CC=C(C)C)C=CC(C)(C)O4`, for which the IC50 in series [1] came out at 8.2 nM.

On to `COc1c(OCc2ccncc2)cc2oc3cc4c(c(OCc5ccncc5)c3c(=O)c2c1CC=C(C)C)C=CC(C)(C)O4`, for which, in series [2], the half-life was 16 min. In addition, the IC50 in series [1] stood at 10.6 nM.

As for `COc1c(O)cc2oc3cc4c(c(OCc5ccccn5)c3c(=O)c2c1CC=C(C)C)C=CC(C)(C)O4`, the half-life in [2] was 0.9 min. In addition, the IC50 in series [1] amounted to 203 nM.

On to `COc1ccc(C2CNC(=O)C2)cc1OC1CCCC1` (stereo not drawn) [ROLIPRAM], for which the Activity result in series [3] was “Toxic”.

As to `COc1c(OCc2cccc(F)c2)cc2oc3cc4c(c(OCc5ccncc5)c3c(=O)c2c1CC=C(C)C)C=CC(C)(C)O4`, the IC50 in [1] was 7.8 nM.

`CCOc1cc2oc3cc4c(c(OCc5ccncc5)c3c(=O)c2c(CC=C(C)C)c1OC)C=CC(C)(C)O4`: the half-life in [2] came to 2.98 min. In addition, in series [1], the IC50 is 10.2 nM.

In the case of `COc1c(OCc2cccc(F)c2)cc2oc3cc4c(c(OCc5ccccn5)c3c(=O)c2c1CC=C(C)C)C=CC(C)(C)O4`, the IC50 in series [1] was 9.3 nM.

`COc1c(O)cc2oc3cc4c(c(OCc5ccccc5)c3c(=O)c2c1CC=C(C)C)C=CC(C)(C)O4`: the IC50 in [1] was above 1000 nM.

On to `COc1c(OCc2ccc(F)cc2)cc2oc3cc4c(c(OCc5ccncc5)c3c(=O)c2c1CC=C(C)C)C=CC(C)(C)O4`, for which the half-life in [2] was 33 min. For the same compound, the IC50 in [1] was determined as 1.4 nM.

For the compound `COc1c(OCc2ccc(F)cc2)cc2oc3cc4c(c(OCc5ccccn5)c3c(=O)c2c1CC=C(C)C)C=CC(C)(C)O4`, the IC50 in series [1] came out at 20.2 nM.

Consider `OCCN(CCO)c1nc(N2CCCCC2)c2nc(N(CCO)CCO)nc(N3CCCCC3)c2n1` [DIPYRIDAMOLE], for which the IC50 in [4] was found to be 2800 nM; in series [9], 600 nM. In addition, the outcome in the series with Mus musculus [5], in the series on Mus musculus [6], in the series on Mus musculus [7], in the series on Mus musculus [8], in the series on Mus musculus [10] and in the series on Mus musculus [11] was Active. Besides, the result in the series with Mus musculus [12], with Mus musculus [13], with Mus musculus [14], with Mus musculus [15], with Mus musculus [16] and in the series with Mus musculus [18] was Active. Besides, the result in the series on Mus musculus [19] was Active. Also, the outcome with Mus musculus [17] was inactive.

With `COc1c(O)cc2oc3cc4c(c(OCc5ccncc5)c3c(=O)c2c1CC=C(C)C)C=CC(C)(C)O4`, the half-life in [2] is 6.7 min. In addition, in [1], the IC50 was determined as 25 nM.

In the case of `COc1cc2oc3cc4c(c(OCc5ccncc5)c3c(=O)c2c(CC=C(C)C)c1OC)C=CC(C)(C)O4`, in series [2], the half-life came out at 2.08 min. Also, the IC50 in [1] is 11.7 nM.

Regarding `COc1c(OC(C)C)cc2oc3cc4c(c(OCc5ccncc5)c3c(=O)c2c1CC=C(C)C)C=CC(C)(C)O4`, in series [2], the half-life came out at 78 min. The IC50 in [1] is 5.2 nM.

`COc1c(OCc2ccccn2)cc2oc3cc4c(c(OCc5ccccn5)c3c(=O)c2c1CC=C(C)C)C=CC(C)(C)O4`: the half-life in [2] came out at 3 min. The IC50 in [1] came to 6.5 nM.

For `COc1c(OCc2ccccc2)cc2oc3cc4c(c(OCc5ccncc5)c3c(=O)c2c1CC=C(C)C)C=CC(C)(C)O4`, the half-life in series [2] is 315 min. In [1], the IC50 was 1.4 nM.
